The source of these data is EPA's ToxValDB 9.5 (doi:10.2903/j.efsa.2013.3213).

The data set concerns Rattus norvegicus. As to conditions: chronic.

The structures appear in SMILES notation.

Compound `CCOP(=O)=O.CCOP(=O)=O.CCOP(=O)=O.[Al+3]` [Fosetyl aluminum] showed an NOAEL of 232 mg/kg-day.

By NOAEL is commonly meant the highest tested level that showed no adverse finding.
